Laboratory results as given in US20130296316A1, “Antiparasitic Agents Based On mTOR Inhibitors” (priority 2010, published 2013).
Like-named read-outs stand apart in the source and are kept apart here.

Assays:
[1] = tested on: L. donovani promastigotes; assay: Potency assessment against Leishmania donovani promastigotes (growth, cell counting); assay type: cell-based; conditions: Leishmania donovani; Table 2B; read-out: L. donovani Promastigote IC50, growth inhibition
T. b. rhodesiense = assay: Potency assessment against T. b. rhodesiense EATRO3 bloodstream form (AlamarBlue, 72 h); assay type: cell-based, Trypanosoma brucei rhodesiense; conditions: Trypanosoma brucei, RHODESIENSE; for IC50: Table 2B, read-out: T. brucei rhod IC50, growth inhibition
L. major promastigotes [2] = assay: Potency assessment against Leishmania major promastigotes (growth, cell counting); assay type: cell-based; conditions: for IC50 / EC50: Leishmania major; for IC50: Table 2B, read-out: L. major Promastigote IC50, growth inhibition; for EC50: promastigotes, average of three replicates, read-out: Effective concentration (EC50) L. major; for activity against L. major promastigotes in words: highest concentration tested
T. cruzi trypomastigotes = assay: T. cruzi intracellular replication in NIH/3T3 host cells (β-galactosidase, CPRG); assay type: cell-based, Trypanosoma cruzi; conditions: Trypanosoma cruzi; for IC50: NIH3T3, Table 2B, read-out: T. Cruzi IC50, growth inhibition; for EC50: NIH3T3, 96 h, trypomastigotes with 3T3 host cells, four days, three replicates within ±10.2%, read-out: Effective concentration (EC50) T. cruzi
[3] = tested on: L. donovani axenic amastigotes; assay: Potency assessment against Leishmania donovani axenic amastigotes (growth, cell counting); assay type: cell-based; conditions: for IC50 / EC50: Leishmania donovani; for IC50: Table 2B, read-out: L. donovani Axenic Amastigote IC50, growth inhibition; for EC50: axenic amastigotes, average of three replicates, read-out: Effective concentration (EC50) L. donovani axenic amastigotes; for activity against L. donovani axenic amastigotes in words: highest concentration tested
[4] = tested on: T. brucei brucei Lister 427; assay: Potency assessment against T. brucei brucei Lister 427 bloodstream form (AlamarBlue, 72 h); assay type: cell-based, Trypanosoma brucei brucei; conditions: Trypanosoma brucei
PI3K p110α = PI3K p110α (Homo sapiens, UniProt P42336); conditions: human enzyme, Table 1; cited from earlier work
PI3K p110α, sequence (P42336 whole entry): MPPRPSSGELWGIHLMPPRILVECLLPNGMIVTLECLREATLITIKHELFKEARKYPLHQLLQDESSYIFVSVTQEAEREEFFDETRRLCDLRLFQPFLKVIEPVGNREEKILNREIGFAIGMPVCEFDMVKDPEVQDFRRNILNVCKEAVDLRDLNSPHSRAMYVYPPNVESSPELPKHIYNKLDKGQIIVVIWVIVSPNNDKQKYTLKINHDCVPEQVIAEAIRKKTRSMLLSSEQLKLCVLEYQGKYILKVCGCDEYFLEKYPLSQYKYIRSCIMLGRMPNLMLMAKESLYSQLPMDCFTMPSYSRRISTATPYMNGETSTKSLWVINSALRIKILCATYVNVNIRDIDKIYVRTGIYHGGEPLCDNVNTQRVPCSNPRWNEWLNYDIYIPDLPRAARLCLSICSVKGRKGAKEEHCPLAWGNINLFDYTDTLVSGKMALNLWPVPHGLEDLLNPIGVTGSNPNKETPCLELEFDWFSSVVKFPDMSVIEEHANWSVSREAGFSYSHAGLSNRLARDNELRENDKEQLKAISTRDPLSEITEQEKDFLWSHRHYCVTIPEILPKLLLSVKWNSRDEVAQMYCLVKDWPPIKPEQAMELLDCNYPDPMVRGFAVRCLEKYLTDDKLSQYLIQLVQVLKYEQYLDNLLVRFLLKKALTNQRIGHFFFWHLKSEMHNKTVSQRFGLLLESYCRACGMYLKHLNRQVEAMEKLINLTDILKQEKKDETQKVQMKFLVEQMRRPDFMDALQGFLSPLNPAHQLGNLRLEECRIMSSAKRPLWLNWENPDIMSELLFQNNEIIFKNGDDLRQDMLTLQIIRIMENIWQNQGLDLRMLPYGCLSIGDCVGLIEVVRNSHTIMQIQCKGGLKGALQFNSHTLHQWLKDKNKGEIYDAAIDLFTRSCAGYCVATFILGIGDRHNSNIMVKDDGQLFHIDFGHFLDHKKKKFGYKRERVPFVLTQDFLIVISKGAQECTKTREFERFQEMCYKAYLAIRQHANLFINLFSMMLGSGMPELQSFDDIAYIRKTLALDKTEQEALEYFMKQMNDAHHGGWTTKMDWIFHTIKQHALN
PI3K p110α, sequence (P27986 whole entry partner): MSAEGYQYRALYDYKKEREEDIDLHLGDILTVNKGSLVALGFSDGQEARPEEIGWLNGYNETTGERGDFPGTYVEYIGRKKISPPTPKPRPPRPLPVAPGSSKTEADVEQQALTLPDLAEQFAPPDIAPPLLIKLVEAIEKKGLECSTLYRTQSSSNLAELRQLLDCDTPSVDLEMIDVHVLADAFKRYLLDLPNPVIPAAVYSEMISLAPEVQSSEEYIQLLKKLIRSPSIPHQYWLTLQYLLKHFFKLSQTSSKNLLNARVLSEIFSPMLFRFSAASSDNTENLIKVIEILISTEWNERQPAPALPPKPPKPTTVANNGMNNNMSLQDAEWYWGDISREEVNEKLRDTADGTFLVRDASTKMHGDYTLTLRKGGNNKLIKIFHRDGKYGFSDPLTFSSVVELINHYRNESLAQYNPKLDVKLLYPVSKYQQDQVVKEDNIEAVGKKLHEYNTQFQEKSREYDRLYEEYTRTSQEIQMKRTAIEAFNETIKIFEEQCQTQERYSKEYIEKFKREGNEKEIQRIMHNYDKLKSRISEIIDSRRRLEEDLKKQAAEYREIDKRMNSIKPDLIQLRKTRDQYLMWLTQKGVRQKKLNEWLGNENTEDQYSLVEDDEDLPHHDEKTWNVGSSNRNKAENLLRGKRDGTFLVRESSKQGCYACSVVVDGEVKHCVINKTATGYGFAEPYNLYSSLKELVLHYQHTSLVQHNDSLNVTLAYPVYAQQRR

mTOR = mTOR (Homo sapiens, UniProt P42345); conditions: mammalian cells / literature; cited from earlier work
human cells = conditions: literature, Table 1; read-out: Inhibition of Cell Growth EC50; cited from earlier work
T. b. brucei Lister 927 = assay: Potency assessment against T. b. brucei Lister 927; assay type: cell-based, Trypanosoma brucei brucei; conditions: Trypanosoma brucei; Table 3
Protocol: Assays were performed using the strain of T. brucei brucei Lister 427 adapted to the laboratory, and the human-infective strain T. b. rhodesiense (EATRO3 ETat1.2 TREU164 [37]). Both strains were grown and tested as bloodstream forms. To establish the EC50, cultures of Trypanosoma brucei and T. b. rhodesiense were treated with two-fold increasing concentrations of compounds (with similar DMSO increasing concentration as control). Cell populations were measured at 72 hours with an Infinite F200 microplate reader (Tecan Austria GmbH, Austria); the determination of cell viability was carried out by the established colorimetric technique AlamarBlue® with modifications, a 96-well plate format spectrophotometric assay which measures the ability of living cells to reduce resazurin [38,39]. Data obtained with T. b. brucei Lister 427 were confirmed by manual counting in a Neubauer chamber for a direct microscopic examination to rule out multinucleated phenotypes that could mask the colorimetric assays, as well as the subtraction of solvent background to dismiss a potential solvent-derived fluorescence. Pentamidine was used as drug control for potency comparison, and T. b. brucei Lister 927 strain was included in our experiments to evaluate the adaptation to medium for the different strains as a variable condition.

[5] = tested on: T. brucei gambiense, ELIANE strain; assay: Potency assessment against T. b. gambiense ELIANE bloodstream form; assay type: cell-based, Trypanosoma brucei gambiense; conditions: Trypanosoma brucei, GAMBIENSE; Table 3; read-out: EC50 T. b. gambiense ELIANE
L. major promastigotes [6] = assay: Cell size and DNA content analysis in Leishmania (flow cytometry); assay type: cell-based, Leishmania major
Protocol: L. major log phase promastigotes were inoculated at a concentration of 10^6 cells/ml into media with compounds as indicated, and incubated overnight with varying drug concentrations to assess cell size and DNA content. For cell size, forward scatter of live promastigotes was measured by a FACS flow cytometer (Becton Dickinson), utilizing dye exclusion with 5 μg/ml propidium iodide (PI) to gate for live cells. DNA content was determined by flow cytometry using fixed and permeabilized L. major stained with PI as previously described, but reducing the incubation time with PI and RNase A from 1 hour to 30 minutes. Histogram analysis was performed using CellQuest 3.1 software (BD Bioscience).

[7] = tested on: T. brucei brucei Lister 427 bloodstream cells; assay: Morphological and cell cycle alterations in T. brucei (flow cytometry); assay type: cell-based, Trypanosoma brucei brucei; conditions: 16 h; PI-103 1 μM, WYE-354 2 μM, Pp242 2 μM, NVP-BEZ235 100 nM
Protocol: Flow cytometry was used to assess cell size and DNA content, to reveal a G1 arrest and inhibition of protein synthesis or G2 arrest and multinucleated cells. […]. After permeabilization with […], saponin (0.5 mg/mL final concentration), the culture was RNAse treated for 30 minutes (10 μg/mL final concentration) and stained with 20 μg/mL propidium iodide immediately before its acquisition in a FACscan cytometer. Cells incubated with equivalent concentration of drug solvent (DMSO) were included in each experiment as control population.

[8] = bloodstream form, average of three replicates, read-out: Effective concentration (EC50) T. b. brucei

With `Nc1ccc(-c2nc(N3CCOCC3)c3cnn(C4CCN(Cc5ccccc5)CC4)c3n2)cc1` [NEU-00000233] the IC50 [1] was ~25 µM, the IC50 (T. b. rhodesiense) was 3.7 µM and the IC50 (L. major promastigotes [2]) was < 25 µM.
For `CCOCCNc1nc(-c2cccc(OC)c2)nc2c1oc1ncccc12` [NEU-0000361], the IC50 (T. b. rhodesiense) was > 5 µM and the IC50 (T. cruzi trypomastigotes) was > 50 µM.
Compound `c1ccc(CN2CCC(n3ncc4c(N5CCOCC5)nc(-c5ccncc5)nc43)CC2)cc1` [NEU-00000232] has an IC50 [3] of 2.43 µM, an IC50 [1] of 8.06 µM and an IC50 (T. b. rhodesiense) of 3.05 µM. The IC50 (L. major promastigotes [2]) was 6.54 µM.
In the case of `O=c1cc(N2CCOCC2)nc2c3ccccc3ccn12` [Compound 401, 2-(morpholin-1-yl)pyrimido[2,1-alpha]isoquinolin-4-one], the EC50 [3] is reported as > 5 µM, the “activity against L. donovani axenic amastigotes in words” value [3] is reported as “inactive” and the EC50 [4, 8] is reported as > 10000 nM. The IC50 (PI3K p110α) was > 100 µM, the EC50 (L. major promastigotes [2]) was > 25 µM and the “activity against L. major promastigotes in words” value (L. major promastigotes [2]) was “inactive”. For the same compound, the “mTOR IC50 in words” value (mTOR) was “low micromolar concentrations”, the EC50 (T. cruzi trypomastigotes) was > 10 µM and the EC50 (human cells) was 1000 nM.
With `CCOc1ccccc1-c1nc(N2CCCCC2)c2oc3ncccc3c2n1` [NEU-0000364] the IC50 (T. b. rhodesiense) was > 5 µM and the IC50 (T. cruzi trypomastigotes) was > 50 µM.
For `COc1ccc(-c2nc(N3CCOCC3)c3oc4ncccc4c3n2)cc1` [NEU-0000365], the IC50 (T. b. rhodesiense) was > 5 µM and the IC50 (T. cruzi trypomastigotes) was > 50 µM.
Compound `N=C(N)c1ccc(OCCCCCOc2ccc(C(=N)N)cc2)cc1` [Pentamidine] has an EC50 (T. b. brucei Lister 927) of 30.3 ± 10.4 nM, an EC50 [5] of 2.5 ± 0.5 nM and an EC50 ([4]; Table 3, read-out: EC50 T. b. brucei 427) of 4.2 ± 0.2 nM. It also gave an EC50 (T. b. rhodesiense; Table 3, read-out: EC50 T. b. rhodesiense EATRO3) of 3.7 ± 0.4 nM.
In the case of `COc1ccc(-c2ccc3c(N4CCOCC4)nc(N4C[C@@H](C)O[C@@H](C)C4)nc3n2)cc1CO` [Ku-0063794], the EC50 [3] is reported as > 5 µM, the “activity against L. donovani axenic amastigotes in words” value [3] is reported as “inactive” and the EC50 [4, 8] is reported as 890 ± 140 nM. For the same compound, the EC50 (L. major promastigotes [2]) was > 25 µM, the “activity against L. major promastigotes in words” value (L. major promastigotes [2]) was “inactive” and the EC50 (T. cruzi trypomastigotes) was > 10 µM. For the same compound, the EC50 (human cells) was 30 nM.
In the case of `CC(C)n1nc(-c2cc3cc(O)ccc3[nH]2)c2c(N)ncnc21` [Pp242], the “effect on cell size and DNA content, L. major promastigotes” value (L. major promastigotes [6]; higher concentrations of Pp242) is reported as “G2 arrest and increase in cell size”, the “effect on cell size and DNA content, L. major promastigotes” value (L. major promastigotes [6]; lower concentrations of Pp242) is reported as “decrease in cell size and a G1 arrest” and the “effect on cellular DNA content / cell cycle, T. b. brucei” value [7] is reported as “G1 arrest”.
For `CCOc1ccccc1-c1nc(N2CCOCC2)c2oc3ncccc3c2n1` [NEU-0000363], the IC50 (T. b. rhodesiense) was > 5 µM and the IC50 (T. cruzi trypomastigotes) was > 50 µM.
Compound `COc1cccc(-c2nc(N3CCCCC3)c3oc4ncccc4c3n2)c1` [NEU-0000289] has an IC50 [3] of ~20 µM, an IC50 (L. major promastigotes [2]) of 7.65 µM and an IC50 (T. cruzi trypomastigotes) of 3.9 µM.
